Source: patent US20140348819A1, “Methods of Treating Cancer” (Dana-Farber Cancer Institute, Inc., priority 2011, published 2014)

Assays:
[1] = tested on: six V600E BRAF melanoma cell lines; assay: Screening of recombinant RTK ligands for ability to confer resistance to BRAFi (PLX4720) or MEKi (PD184352) (Table 4); type: cell-based, human; set-up: ability of recombinant RTK ligand to confer resistance / ability of recombinant RTK ligand to confer resistance (screening value): scale not given here
Method in brief: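 Six V600E BRAF melanoma lines treated with PLX4720 or PD184352 after addition of 22 recombinant RTK ligands, scored for drug resistance. Activation of selected RTKs confirmed by western blotting and high-throughput tyrosine kinase phosphorylation profiling.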

pERK/pAKT = assay: High-throughput western analysis of pERK/pAKT re-activation by RTK ligands under BRAFi/MEKi; type: cell-based, human; details: under BRAFi (PLX4720); after 1 hour of cytokine treatment; six V600E BRAF melanoma cell lines
Procedure: FIG. 23B is a western blot showing the activation of AKT (phosphorylated AKT, S473) after 1 hour and 24 hours after treatment with HGF, IGF-1 (IGF), and Insulin (INS) in the presence of BRAFi (PLX4720, 2 μM). FIG. 23C is a western blot showing the effect of HGF (25 ng/mL) on MAPK and PI3K/AKT pathway activation (pRAF1, pMEK, pERK, pAKT and pMET) in melanoma cell lines after 24 hours of treatment with 2 μM BRAFi (PLX4720) or 2 μM MEKi (PD184352).
To understand why, of all the RTKs tested, only HGF could induce such a unique primary resistance phenotype, a high-throughput western analysis was used to test the ability of all 22 RTK ligands to re-activate pERK/pAKT under BRAFi (PLX4720) treatment in six V600E BRAF melanoma cell lines. […] However, whereas the activation of both ERK and AKT by HGF under PLX4720 treatment was long lasting, the activation of either ERK or AKT by the above cytokines was only transient and thus could not confer resistance to the melanoma cell lines.

PDGF-BB: RTK ligand of PDGFRB
ability of recombinant RTK ligand to confer resistance ([1]; A2058, PD184352 - 1 uM, ligand 0.4 ng/ml): 1.07 | ability of recombinant RTK ligand to confer resistance ([1]; A2058, PD184352 - 1 uM, ligand 1.6 ng/ml): 0.98 | ability of recombinant RTK ligand to confer resistance ([1]; A2058, PD184352 - 1 uM, ligand 6.25 ng/ml): 1.10 | ability of recombinant RTK ligand to confer resistance ([1]; A2058, PD184352 - 1 uM, ligand 25 ng/ml): 1.09 | ability of recombinant RTK ligand to confer resistance ([1]; A2058, PD184352 - 1 uM, ligand 100 ng/ml): 1.02 | ability of recombinant RTK ligand to confer resistance ([1]; A2058, PLX4720 - 2 uM, ligand 0.4 ng/ml): 1.07 | ability of recombinant RTK ligand to confer resistance ([1]; A2058, PLX4720 - 2 uM, ligand 1.6 ng/ml): 0.98 | ability of recombinant RTK ligand to confer resistance ([1]; A2058, PLX4720 - 2 uM, ligand 6.25 ng/ml): 1.07 | ability of recombinant RTK ligand to confer resistance ([1]; A2058, PLX4720 - 2 uM, ligand 25 ng/ml): 1.12 | ability of recombinant RTK ligand to confer resistance ([1]; A2058, PLX4720 - 2 uM, ligand 100 ng/ml): 1.07 | ability of recombinant RTK ligand to confer resistance ([1]; C32, PD184352 - 1 uM, ligand 0.4 ng/ml): 1.06 | ability of recombinant RTK ligand to confer resistance ([1]; C32, PD184352 - 1 uM, ligand 1.6 ng/ml): 0.97 | ability of recombinant RTK ligand to confer resistance ([1]; C32, PD184352 - 1 uM, ligand 6.25 ng/ml): 1.08 | ability of recombinant RTK ligand to confer resistance ([1]; C32, PD184352 - 1 uM, ligand 25 ng/ml): 1.10 | ability of recombinant RTK ligand to confer resistance ([1]; C32, PD184352 - 1 uM, ligand 100 ng/ml): 0.96 | ability of recombinant RTK ligand to confer resistance ([1]; C32, PLX4720 - 2 uM, ligand 0.4 ng/ml): 0.96 | ability of recombinant RTK ligand to confer resistance ([1]; C32, PLX4720 - 2 uM, ligand 1.6 ng/ml): 0.97 | ability of recombinant RTK ligand to confer resistance ([1]; C32, PLX4720 - 2 uM, ligand 6.25 ng/ml): 1.04 | ability of recombinant RTK ligand to confer resistance ([1]; C32, PLX4720 - 2 uM, ligand 25 ng/ml): 0.97 | ability of recombinant RTK ligand to confer resistance ([1]; C32, PLX4720 - 2 uM, ligand 100 ng/ml): 0.89 | ability of recombinant RTK ligand to confer resistance ([1]; Colo 829, PD184352 - 1 uM, ligand 0.4 ng/ml): 1.04 | ability of recombinant RTK ligand to confer resistance ([1]; Colo 829, PD184352 - 1 uM, ligand 1.6 ng/ml): 1.06 | ability of recombinant RTK ligand to confer resistance ([1]; Colo 829, PD184352 - 1 uM, ligand 6.25 ng/ml): 1.10 | ability of recombinant RTK ligand to confer resistance ([1]; Colo 829, PD184352 - 1 uM, ligand 25 ng/ml): 1.09 | ability of recombinant RTK ligand to confer resistance ([1]; Colo 829, PD184352 - 1 uM, ligand 100 ng/ml): 0.98 | ability of recombinant RTK ligand to confer resistance ([1]; Colo 829, PLX4720 - 2 uM, ligand 0.4 ng/ml): 1.01 | ability of recombinant RTK ligand to confer resistance ([1]; Colo 829, PLX4720 - 2 uM, ligand 1.6 ng/ml): 1.03 | ability of recombinant RTK ligand to confer resistance ([1]; Colo 829, PLX4720 - 2 uM, ligand 6.25 ng/ml): 1.06 | ability of recombinant RTK ligand to confer resistance ([1]; Colo 829, PLX4720 - 2 uM, ligand 25 ng/ml): 1.06 | ability of recombinant RTK ligand to confer resistance ([1]; Colo 829, PLX4720 - 2 uM, ligand 100 ng/ml): 1.01 | ability of recombinant RTK ligand to confer resistance ([1]; G-361, PD184352 - 1 uM, ligand 0.4 ng/ml): 1.00 | ability of recombinant RTK ligand to confer resistance ([1]; G-361, PD184352 - 1 uM, ligand 1.6 ng/ml): 0.89 | ability of recombinant RTK ligand to confer resistance ([1]; G-361, PD184352 - 1 uM, ligand 6.25 ng/ml): 0.99 | ability of recombinant RTK ligand to confer resistance ([1]; G-361, PD184352 - 1 uM, ligand 25 ng/ml): 0.98 | ability of recombinant RTK ligand to confer resistance ([1]; G-361, PD184352 - 1 uM, ligand 100 ng/ml): 0.96 | ability of recombinant RTK ligand to confer resistance ([1]; G-361, PLX4720 - 2 uM, ligand 0.4 ng/ml): 0.93 | ability of recombinant RTK ligand to confer resistance ([1]; G-361, PLX4720 - 2 uM, ligand 1.6 ng/ml): 0.90 | ability of recombinant RTK ligand to confer resistance ([1]; G-361, PLX4720 - 2 uM, ligand 6.25 ng/ml): 0.98 | ability of recombinant RTK ligand to confer resistance ([1]; G-361, PLX4720 - 2 uM, ligand 25 ng/ml): 1.00 | ability of recombinant RTK ligand to confer resistance ([1]; G-361, PLX4720 - 2 uM, ligand 100 ng/ml): 1.00 | ability of recombinant RTK ligand to confer resistance ([1]; SK-MEL-5, PD184352 - 1 uM, ligand 0.4 ng/ml): 1.03 | ability of recombinant RTK ligand to confer resistance ([1]; SK-MEL-5, PD184352 - 1 uM, ligand 1.6 ng/ml): 1.08 | ability of recombinant RTK ligand to confer resistance ([1]; SK-MEL-5, PD184352 - 1 uM, ligand 6.25 ng/ml): 1.04 | ability of recombinant RTK ligand to confer resistance ([1]; SK-MEL-5, PD184352 - 1 uM, ligand 25 ng/ml): 1.15 | ability of recombinant RTK ligand to confer resistance ([1]; SK-MEL-5, PD184352 - 1 uM, ligand 100 ng/ml): 1.16 | ability of recombinant RTK ligand to confer resistance ([1]; SK-MEL-5, PLX4720 - 2 uM, ligand 0.4 ng/ml): 0.87 | ability of recombinant RTK ligand to confer resistance ([1]; SK-MEL-5, PLX4720 - 2 uM, ligand 1.6 ng/ml): 0.98 | ability of recombinant RTK ligand to confer resistance ([1]; SK-MEL-5, PLX4720 - 2 uM, ligand 6.25 ng/ml): 1.02 | ability of recombinant RTK ligand to confer resistance ([1]; SK-MEL-5, PLX4720 - 2 uM, ligand 25 ng/ml): 1.16 | ability of recombinant RTK ligand to confer resistance ([1]; SK-MEL-5, PLX4720 - 2 uM, ligand 100 ng/ml): 1.31 | ability of recombinant RTK ligand to confer resistance ([1]; SK-MEL-28, PD184352 - 1 uM, ligand 0.4 ng/ml): 1.10 | ability of recombinant RTK ligand to confer resistance ([1]; SK-MEL-28, PD184352 - 1 uM, ligand 1.6 ng/ml): 1.02 | ability of recombinant RTK ligand to confer resistance ([1]; SK-MEL-28, PD184352 - 1 uM, ligand 6.25 ng/ml): 1.05 | ability of recombinant RTK ligand to confer resistance ([1]; SK-MEL-28, PD184352 - 1 uM, ligand 25 ng/ml): 0.99 | ability of recombinant RTK ligand to confer resistance ([1]; SK-MEL-28, PD184352 - 1 uM, ligand 100 ng/ml): 1.03 | ability of recombinant RTK ligand to confer resistance ([1]; SK-MEL-28, PLX4720 - 2 uM, ligand 0.4 ng/ml): 1.03 | ability of recombinant RTK ligand to confer resistance ([1]; SK-MEL-28, PLX4720 - 2 uM, ligand 1.6 ng/ml): 1.10 | ability of recombinant RTK ligand to confer resistance ([1]; SK-MEL-28, PLX4720 - 2 uM, ligand 6.25 ng/ml): 1.16 | ability of recombinant RTK ligand to confer resistance ([1]; SK-MEL-28, PLX4720 - 2 uM, ligand 25 ng/ml): 10.5 | ability of recombinant RTK ligand to confer resistance ([1]; SK-MEL-28, PLX4720 - 2 uM, ligand 100 ng/ml): 1.13 | ability of RTK ligand to confer primary resistance ([1]; six V600E BRAF melanoma cell lines, BRAFi (PLX4720) or MEKi (PD184352)): not shown to induce primary resistance | re-activation of pERK/pAKT (pERK/pAKT): reactivate only ERK
